Reference: patent US20250215029A1 (Recludix Pharma, Inc., priority 2022, published 2025)

Assays:
[1] = target: T1, Recombinant STAT3 protein (STAT3 (G127-I722)) (Homo sapiens, UniProt P40763); assay: STAT3 Fluorescence Polarization (FP) Assay; type: binding; settings: STAT3 (G127-I722) 25 nM, probe 5-FAM-GpYLPQTV-NH2 2 nM, 45-minute incubation; read-out: STAT3 (FP assay IC50 class)
T1 construct: Recombinant STAT3 protein (STAT3 (G127-I722))
Procedure, shortened: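 Compounds in serial dilution receive a premix of STAT3 (G127-I722, 25 nM) and fluorescent phosphotyrosine peptide 5-FAM-GpYLPQTV-NH2 (2 nM) at pH 7.4. After 45 min at room temperature, FP is measured and IC50 derived by nonlinear regression.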

[2] = target: T2, Recombinant STAT6 protein (STAT6 (W123-T658)) (Homo sapiens, UniProt P42226); assay: STAT6 Fluorescence Polarization (FP) Assay; type: binding; settings: STAT6 (W123-T658) 250 nM, probe 5-FAM-Ap[…]-NH2 2 nM, 45-minute incubation; read-out: STAT6 (FP assay IC50 class)
T2 construct: Recombinant STAT6 protein (STAT6 (W123-T658))
T2 sequence (P42226 123-658): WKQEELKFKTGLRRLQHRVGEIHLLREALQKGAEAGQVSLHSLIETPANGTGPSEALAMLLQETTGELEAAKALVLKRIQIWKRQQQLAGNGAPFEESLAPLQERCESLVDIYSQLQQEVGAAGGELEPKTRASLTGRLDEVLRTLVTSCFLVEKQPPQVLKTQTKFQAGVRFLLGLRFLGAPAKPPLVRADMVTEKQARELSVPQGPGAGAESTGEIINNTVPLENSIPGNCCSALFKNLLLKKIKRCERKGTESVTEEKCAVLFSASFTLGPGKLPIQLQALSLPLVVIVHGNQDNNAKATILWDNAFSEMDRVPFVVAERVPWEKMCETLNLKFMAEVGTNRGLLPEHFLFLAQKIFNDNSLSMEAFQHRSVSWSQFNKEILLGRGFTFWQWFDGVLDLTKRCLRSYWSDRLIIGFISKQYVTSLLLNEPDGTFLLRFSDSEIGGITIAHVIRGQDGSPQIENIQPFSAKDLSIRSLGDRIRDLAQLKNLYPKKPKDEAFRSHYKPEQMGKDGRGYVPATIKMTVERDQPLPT
Procedure, shortened: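 Serially diluted compounds received a premix of STAT6 (W123-T658, 250 nM) and 5-FAM peptide probe (2 nM) in pH 7.4 HEPES buffer containing DTT and Tween 20. Following 45 min at room temperature, FP was recorded. IC50s were fitted by nonlinear regression; values are binned A (≤300 nM), B (>300-3000 nM), C (>3-30 μM), D (>30 μM).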

T1 sequence (P40763 127-722): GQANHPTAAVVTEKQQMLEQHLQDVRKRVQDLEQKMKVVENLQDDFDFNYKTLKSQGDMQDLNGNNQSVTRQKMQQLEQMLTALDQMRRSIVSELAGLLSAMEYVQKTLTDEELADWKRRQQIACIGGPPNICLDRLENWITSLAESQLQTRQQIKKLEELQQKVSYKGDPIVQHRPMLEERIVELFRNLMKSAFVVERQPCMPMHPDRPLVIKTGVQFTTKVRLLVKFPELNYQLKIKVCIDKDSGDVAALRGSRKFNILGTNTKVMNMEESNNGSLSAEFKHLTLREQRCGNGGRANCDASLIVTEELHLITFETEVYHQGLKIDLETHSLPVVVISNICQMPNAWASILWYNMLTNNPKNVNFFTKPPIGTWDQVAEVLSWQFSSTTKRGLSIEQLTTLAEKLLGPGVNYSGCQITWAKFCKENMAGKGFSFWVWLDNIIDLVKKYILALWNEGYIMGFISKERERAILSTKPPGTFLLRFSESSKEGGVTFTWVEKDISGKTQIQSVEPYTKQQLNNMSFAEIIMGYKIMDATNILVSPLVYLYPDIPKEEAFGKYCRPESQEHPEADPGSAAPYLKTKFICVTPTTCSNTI

IC50 [1] | IC50 [2] | SMILES
100 to 1000 nM | 300 to 3000 nM | CC(NC(=O)[C@@H]1CC[C@@H]2CCCC[C@H](NC(=O)c3cc4cc(C(F)(F)P(=O)(O)O)ccc4s3)C(=O)N21)c1n[nH]c2ncccc12 (stereo partly drawn) [Compound 1107, ((2-(((3S,6S,10aS)-3-((1-(1H-pyrazolo[3,4-b]pyridin-3-yl)ethyl)carbamoyl)-5-oxodecahydropyrrolo[1,2-a]azocin-6-yl)carbamoyl)benzo[b]thiophen-5-yl)difluoromethyl)phosphonic acid]
100 to 1000 nM | 3000 to 30000 nM | O=C(N[C@H]1CCCC[C@H]2CC[C@@H](C(=O)NCc3cnc4[nH]ncc4c3)N2C1=O)c1cc2cc(C(F)(F)P(=O)(O)O)ccc2s1 [Compound 1108, ((2-(((3S,6S,10aS)-3-(((1H-pyrazolo[3,4-b]pyridin-5-yl)methyl)carbamoyl)-5-oxodecahydropyrrolo[1,2-a]azocin-6-yl)carbamoyl)benzo[b]thiophen-5-yl)difluoromethyl)phosphonic acid]
< 100 nM | 300 to 3000 nM | O=C(N[C@H]1CCCC[C@H]2CC[C@@H](C(=O)NCc3cnc4[nH]cnc4c3)N2C1=O)c1cc2cc(C(F)(F)P(=O)(O)O)ccc2s1 [Compound 1112, ((2-(((3S,6S,10aS)-3-(((3H-imidazo[4,5-b]pyridin-6-yl)methyl)carbamoyl)-5-oxodecahydropyrrolo[1,2-a]azocin-6-yl)carbamoyl)benzo[b]thiophen-5-yl)difluoromethyl)phosphonic acid]
100 to 1000 nM | 300 to 3000 nM | CC(NC(=O)[C@@H]1CC[C@@H]2CCCC[C@H](NC(=O)c3cc4cc(C(F)(F)P(=O)(O)O)ccc4s3)C(=O)N21)c1c[nH]c2ncccc12 (stereo partly drawn) [Compound 1113, ((2-(((3S,6S,10aS)-3-((1-(1H-pyrrolo[2,3-b]pyridin-3-yl)ethyl)carbamoyl)-5-oxodecahydropyrrolo[1,2-a]azocin-6-yl)carbamoyl)benzo[b]thiophen-5-yl)difluoromethyl)phosphonic acid]
100 to 1000 nM | 300 to 3000 nM | O=C(N[C@H]1CCCC[C@H]2CC[C@@H](C(=O)NCc3cnc4[nH]ccc4c3)N2C1=O)c1cc2cc(C(F)(F)P(=O)(O)O)ccc2s1 [Compound 1114, ((2-(((3S,6S,10aS)-3-(((1H-pyrrolo[2,3-b]pyridin-5-yl)methyl)carbamoyl)-5-oxodecahydropyrrolo[1,2-a]azocin-6-yl)carbamoyl)benzo[b]thiophen-5-yl)difluoromethyl)phosphonic acid]
1000 to 10000 nM | 3000 to 30000 nM | COCC(NC(=O)[C@@H]1CC[C@@H]2CCCC[C@H](NC(=O)c3cc4cc(C(F)(F)P(=O)(O)O)ccc4s3)C(=O)N21)c1c[nH]c2ncccc12 (stereo partly drawn) [Compound 1121, (difluoro(2-(((3S,6S,10aS)-3-((2-methoxy-1-(1H-pyrrolo[2,3-b]pyridin-3-yl)ethyl)carbamoyl)-5-oxodecahydropyrrolo[1,2-a]azocin-6-yl)carbamoyl)benzo[b]thiophen-5-yl)methyl)phosphonic acid]

The next lines start with the molecule.

SMILES | IC50 [1] | IC50 [2]
CC[C@H]1CC[C@H](NC(=O)c2cc3cc([C@H](F)P(=O)(O)O)ccc3s2)C(=O)N2[C@H](CC[C@H]2C(=O)N2CC(c3cnccc3N3CCC3)C2)C1 [Compound 938, ((R)-(2-(((3S,6S,9S,10aR)-3-(3-(4-(azetidin-1-yl)pyridin-3-yl)azetidine-1-carbonyl)-9-ethyl-5-oxodecahydropyrrolo [1,2-a]azocin-6-yl)carbamoyl)benzo [b]thiophen-5-yl)fluoromethyl) phosphonic acid] | < 100 nM | 300 to 3000 nM
CC(C)c1ccncc1C1CN(C(=O)[C@@H]2CC[C@@H]3CCC[C@H](NC(=O)c4cc5cc(C(F)P(=O)(O)O)ccc5s4)C(=O)N32)C1 (stereo partly drawn) [Compound 939, (fluoro(2-(((3S,6S,9aS)-3-(3-(4-isopropylpyridin-3-yl)azetidine-1-carbonyl)-5-oxooctahydro-1H-pyrrolo[1,2-a]azepin-6-yl)carbamoyl)benzo [b]thiophen-5-yl)methyl) phosphonic acid] | < 100 nM | 3000 to 30000 nM
Cc1cc(C#N)ccc1C1CN(C(=O)[C@@H]2CC[C@@H]3CCCC[C@H](NC(=O)c4cc5cc(C(F)(F)P(=O)(O)O)ccc5s4)C(=O)N32)C1 [Compound 1110, ((2-(((3S,6S,10aS)-3-(3-(4-cyano-2-methylphenyl)azetidine-1-carbonyl)-5-oxodecahydropyrrolo[1,2-a]azocin-6-yl)carbamoyl)benzo[b]thiophen-5-yl)difluoromethyl)phosphonic acid] | < 100 nM | 300 to 3000 nM
O=C(N[C@H]1CCC[C@H]2CC[C@@H](C(=O)NCc3ccc4[nH]cnc4c3)N2C1=O)c1cc2cc(C(F)(F)P(=O)(O)O)ccc2s1 [Compound 1115, ((2-(((3S,6S,9aS)-3-(((1H-benzo[d]imidazol-5-yl)methyl)carbamoyl)-5-oxooctahydro-1H-pyrrolo[1,2-a]azepin-6-yl)carbamoyl)benzo[b]thiophen-5-yl)difluoromethyl)phosphonic acid] | < 100 nM | 300 to 3000 nM
Cc1nc2cc(CNC(=O)[C@@H]3CC[C@@H]4CCC[C@H](NC(=O)c5cc6cc(C(F)(F)P(=O)(O)O)ccc6s5)C(=O)N43)ccc2[nH]1 [Compound 1116, (difluoro(2-(((3S,6S,9aS)-3-(((2-methyl-1H-benzo[d]imidazol-5-yl)methyl)carbamoyl)-5-oxooctahydro-1H-pyrrolo[1,2-a]azepin-6-yl)carbamoyl)benzo[b]thiophen-5-yl)methyl)phosphonic acid] | 100 to 1000 nM | 3000 to 30000 nM
O=C(N[C@H]1CCC[C@H]2CC[C@@H](C(=O)NCc3ccc4[nH]c(=O)[nH]c4c3)N2C1=O)c1cc2cc(C(F)(F)P(=O)(O)O)ccc2s1 [Compound 1117, (difluoro(2-(((3S,6S,9aS)-5-oxo-3-(((2-oxo-2,3-dihydro-1H-benzo[d]imidazol-5-yl)methyl)carbamoyl)octahydro-1H-pyrrolo[1,2-a]azepin-6-yl)carbamoyl)benzo[b]thiophen-5-yl)methyl)phosphonic acid] | 100 to 1000 nM | 300 to 3000 nM
O=C(N[C@H]1CCC[C@H]2CC[C@@H](C(=O)NCc3cnc4[nH]cnc4c3)N2C1=O)c1cc2cc(C(F)(F)P(=O)(O)O)ccc2s1 [Compound 1118, ((2-(((3S,6S,9aS)-3-(((3H-imidazo[4,5-b]pyridin-6-yl)methyl)carbamoyl)-5-oxooctahydro-1H-pyrrolo[1,2-a]azepin-6-yl)carbamoyl)benzo[b]thiophen-5-yl)difluoromethyl)phosphonic acid] | < 100 nM | 300 to 3000 nM
Cn1cnc2cc(CNC(=O)[C@@H]3CC[C@@H]4CCC[C@H](NC(=O)c5cc6cc(C(F)(F)P(=O)(O)O)ccc6s5)C(=O)N43)cnc21 [Compound 1119, (difluoro(2-(((3S,6S,9aS)-3-(((3-methyl-3H-imidazo[4,5-b]pyridin-6-yl)methyl)carbamoyl)-5-oxooctahydro-1H-pyrrolo[1,2-a]azepin-6-yl)carbamoyl)benzo[b]thiophen-5-yl)methyl)phosphonic acid] | 100 to 1000 nM | 300 to 3000 nM
Cn1cnc2ncc(CNC(=O)[C@@H]3CC[C@@H]4CCC[C@H](NC(=O)c5cc6cc(C(F)(F)P(=O)(O)O)ccc6s5)C(=O)N43)cc21 [Compound 1120, (difluoro(2-(((3S,6S,9aS)-3-(((1-methyl-1H-imidazo[4,5-b]pyridin-6-yl)methyl)carbamoyl)-5-oxooctahydro-1H-pyrrolo[1,2-a]azepin-6-yl)carbamoyl)benzo[b]thiophen-5-yl)methyl)phosphonic acid] | 100 to 1000 nM | 300 to 3000 nM
